# According to US11571437B2, “Methods of treating cancer using PRMT5 inhibitors” (Janssen Pharmaceutica NV, priority 2019, dated 2023):
# Tests used:
# various solid tumors = experiment: Phase 1 open-label study Part 1: preliminary clinical activity (RECIST); format: in vivo, human
# Source text: (§1) This is a multi-part, Phase 1, open-label, multicenter study to evaluate the safety, pharmacokinetics, pharmacodynamics, and preliminary clinical activity of JNJ-64619178 monotherapy administered either to adult human subjects with advanced solid tumors or B cell non-Hodgkin lymphomas who previously received or are ineligible for standard treatment options, or to adult subjects with lower risk myelodysplastic syndromes (MDS) who are red blood cell (RBC) transfusion-dependent and relapsed or refractory to erythropoiesis-stimulating agent (ESA) treatment.
# (§2) Fifty-four (54) participants with various solid tumors (e.g., breast cancer, prostate cancer, salivary duct carcinoma, adenoid cystic carcinoma, and uveal melanoma) were dosed in the “Part 1” study described below with JNJ-64619178 at 0.5 mg (1st cohort), 1 mg (2nd cohort), 2 mg (3rd cohort), 4 mg (4th cohort), and 3 mg (5th cohort) under a schedule of 14 days continuous dose administration followed by a 7-day rest period (14 days on/7 days off in a 21-day cycle); or at 1 mg (6th cohort) or 2 mg (7th cohort) under a schedule of 21 days continuous dosing. Average treatment duration was 3 months, with a range of 0.4 to 22.4 months. […] The maximum tolerated dose was considered 3 mg on the 14 days on/7 days off schedule or 2 mg on the continuous dosing schedule. […] The participant with confirmed PR was from cohort 2.
# (§3) Two provisional RP2Ds were selected: 1.5 mg intermittently and 1 mg QD.
# [1] = tested on: NCI H1048 human SCLC xenografts; experiment: second NCI-H1048 human SCLC mouse xenograft study, 10 days dosing and 10 days regrowth observation; format: in vivo, mice; details: 10 mg/kg oral gavage for 10 days
# [2] = Phase 1 open-label study Part 1: safety and tolerability; format: in vivo, human
# Source text: as §1
# Fifteen (15) participants with various solid tumors (e.g., breast cancer, prostate cancer, salivary duct carcinoma, adenoid cystic carcinoma) were dosed in the “Part 1” study described below with JNJ-64619178 at 0.5 mg (1′ cohort), 1 mg (2nd cohort), 2 mg (3rd cohort) and 4 mg (4th cohort) under a schedule of 14 days continuous dose administration followed by a 7-day rest period (14 days on/7 days off in a 21-day cycle). Average treatment duration ranged from 4 weeks in the 4th cohort (4 mg 14 days on/7 days off) to 6 months in the 2nd cohort (1 mg 14 days on/7 days off). […] The Part 1 study is ongoing.
# as §2
# The JNJ-64619178 starting dose is based on toxicology results obtained using no observed adverse effect level (NOAEL) dose, more conservative than the highest non-severely toxic dose (HNSTD) in the dog as the most sensitive species. Using a default safety factor of 6 (used for HNSTD in non-rodents), a starting dose of 0.54 mg once daily (QD) was obtained, which was rounded to 0.5 mg QD. A single dose of the study drug will be administered in the pharmacokinetic run-in phase for Part 1. During the treatment phase, the study drug will be administered for 14 consecutive days followed by 7 days of rest (14 days on/7 days off dose administration) on a 21 day cycle. Alternative dosing schedules (e.g., continuous dosing, 7 days on/7 days off, and 7 days on/14 days off) are also evaluated.
# The study was initiated with dose Schedule A (14 days on/7 days off dose administration on a 21-day cycle). Table B below provides an example of possible dose escalation.
# NCI-H1048 xenografts = experiment: NCI-H1048 xenograft, continuous versus 7+/7- dosing (Study 3); format: in vivo, mice; details: 10 mg/kg once daily oral, at day 28
# Method: FIG. 4 is a line graph showing extended tumor growth inhibition using a dosing cessation of the compound of the disclosure in the NCI-H1048 tumor model at a JNJ64619178 dosage of 10 mg/kg for either 28 consecutive days or for two cycles of 7 daily drug treatment followed by 7 days dosing holidays (7+/7 −, 2 cycles).
# In all xenografts studies, the average tumor volume at treatment initiation was about 150 mm^3 and mean tumor volumes (mm^3)±SEM of each group were graphed over time as indicated in FIG. 4.
# plasma SDMA = experiment: Phase 1 open-label study Part 1: target engagement by plasma SDMA; format: in vivo, human; details: even with intermittent dosing
# Method: as §3
# [3] = Phase 1 open-label study Part 1: plasma pharmacokinetics; format: in vivo; details: human plasma, oral capsules
# Method: as §3
# The pharmacokinetic run-in phase will evaluate the single-dose pharmacokinetics of JNJ 64619178 prior to subsequent daily dose administration in the treatment phase. Subjects will be administered a single-dose of study drug at the site on Day 1 and remain at site for at least 6 hours for pharmacokinetic assessments. The single-dose of study drug will be followed by a 6 day rest period (i.e., Days 2 to 7 [a range of 5 to 10 days is allowed]) during which pharmacokinetic blood sample and ECG collection will be conducted. Certain subjects in Part 1 may not participate in the pharmacokinetic run-in phase.
# The treatment phase begins on Cycle 1 Day 1 with the administration of the study drug and continues until the completion of the end-of-treatment visit. During the treatment phase, multiple-dose pharmacokinetics of JNJ-64619178 will be evaluated. On Cycle 1 Day 14, subjects in Part 1 will remain at site for at least 8 hours after the study drug administration for pharmacokinetic and ECG assessments. Study drug should be administered at approximately the same time each day for accurate evaluation of the pharmacokinetics of JNJ 64619178.
# [4] = tested on: NCI-H1048 human xenograft model of SCLC; experiment: NCI-H1048 human SCLC xenograft, once daily oral dosing up to 28 days (Study 1); format: in vivo, mice
# Method: JNJ-64619178 was tested for antitumor activity in the NCI-H1048 human xenograft model of SCLC. Male mice were subcutaneously implanted with NCI-H1048 cells, and tumors were allowed to grow for 14 days, reaching 174±51 mm^3 in volume, when treatment was started. Mice were administered once daily oral doses of JNJ-64619178 at 1, 3, and 10 mg/kg or 20% hydroxypropyl-β-cyclodextrin (HP-β-CD) vehicle control for up to 28 days.
# FIG. 1 details the individual tumor regrowth observed following cessation of once daily treatment with 10 mg/kg JNJ 64619178 or vehicle control. In all 8 mice treated with 10 mg/kg JNJ 64619178, tumor regrowth began approximately 14 days after cessation of dosing, with tumors reaching ethical limits by Day 92 postimplantation.
# PRMT5/MEP50 complex = PRMT5/MEP50 complex (Homo sapiens, UniProt O14744); experiment: in vitro thermal shift experiments; format: binding
# Source text: (§4) This unique mode-of-binding translates into very potent and time-dependent PRMT5 enzyme inhibition.
# PRMT5/MEP50 = PRMT5/MEP50 (Homo sapiens, UniProt O14744); experiment: surface plasmon resonance binding studies
# Source text: as §4
# Chain of PRMT5/MEP50 (O14744 whole entry): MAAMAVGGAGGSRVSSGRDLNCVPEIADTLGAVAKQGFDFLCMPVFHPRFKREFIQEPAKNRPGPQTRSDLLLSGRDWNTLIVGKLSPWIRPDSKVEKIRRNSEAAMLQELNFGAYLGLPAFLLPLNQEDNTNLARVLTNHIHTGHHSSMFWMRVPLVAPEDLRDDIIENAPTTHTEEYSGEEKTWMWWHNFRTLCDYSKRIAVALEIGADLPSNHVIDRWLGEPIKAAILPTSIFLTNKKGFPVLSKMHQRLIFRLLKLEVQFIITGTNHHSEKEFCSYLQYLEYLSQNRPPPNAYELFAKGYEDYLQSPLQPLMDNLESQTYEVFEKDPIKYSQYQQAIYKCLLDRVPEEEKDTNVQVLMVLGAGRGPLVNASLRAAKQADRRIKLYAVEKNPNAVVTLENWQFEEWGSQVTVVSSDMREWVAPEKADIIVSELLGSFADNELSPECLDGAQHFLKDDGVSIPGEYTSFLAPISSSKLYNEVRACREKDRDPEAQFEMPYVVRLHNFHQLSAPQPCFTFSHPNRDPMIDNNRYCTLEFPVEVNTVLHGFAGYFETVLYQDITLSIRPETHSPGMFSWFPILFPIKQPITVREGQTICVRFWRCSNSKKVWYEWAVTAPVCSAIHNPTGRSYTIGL
# Chain of PRMT5/MEP50 (Q9BQA1 whole entry partner): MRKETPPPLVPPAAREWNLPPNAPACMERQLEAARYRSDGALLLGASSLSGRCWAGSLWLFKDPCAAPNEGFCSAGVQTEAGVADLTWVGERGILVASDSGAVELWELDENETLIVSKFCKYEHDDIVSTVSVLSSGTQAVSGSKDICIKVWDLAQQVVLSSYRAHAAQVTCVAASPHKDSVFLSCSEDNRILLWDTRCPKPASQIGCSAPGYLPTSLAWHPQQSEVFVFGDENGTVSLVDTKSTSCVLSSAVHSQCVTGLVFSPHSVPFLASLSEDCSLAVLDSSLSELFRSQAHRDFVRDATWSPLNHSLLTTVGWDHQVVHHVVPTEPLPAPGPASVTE
# Chain of PRMT5/MEP50 complex (O14744 whole entry): as the sequence (O14744 whole entry) above
# Chain of PRMT5/MEP50 complex (Q9BQA1 whole entry partner): as the sequence (Q9BQA1 whole entry partner) above
smiles,measurement,setting,value
"Nc1nc2cc(CC[C@H]3C[C@@H](n4ccc5c(N)ncnc54)[C@H](O)[C@@H]3O)ccc2cc1Br [JNJ-64619178, (1S,2R,3S,5R)-3-(2-(2-amino-3-bromoquinolin-7-yl)ethyl)-5-(4-amino-7H-pyrrolo[2,3-d]pyrimidin-7-yl)cyclopentane-1,2-diol]",best overall response: confirmed partial response,"various solid tumors; 1 of 45 participants evaluable for efficacy, from cohort 2",4.3%
same,best overall response: progressive disease,various solid tumors; 20 of 45 participants evaluable for efficacy,43%
same,best overall response: stable disease,various solid tumors; 24 of 45 participants evaluable for efficacy,52%
same,response (RECIST) in ACC,various solid tumors; adenoid cystic carcinoma,confirmed partial response
same,duration of stable disease,"various solid tumors; patients with ACC, prostate cancer, salivary gland carcinomas, and other tumor types",greater than 6 months
same,tumor growth inhibition (TGI),[1],up to 72.9%
same,maximum tolerated dose,[2]; 14 days on/7 days off schedule,3 mg
same,maximum tolerated dose,[2]; continuous dosing schedule,2 mg
same,dose-limiting toxicities,"[2]; human, in vivo",thrombocytopenia of Grade 4 or of Grade 3 lasting longer than 7 days
same,grade of non-hematologic toxicities,"[2]; human, in vivo",Grade 1 or 2 except for one case of Grade 3 vomiting lasting 24 hours
same,adverse events observed in >20% of participants,[2]; in vivo,"gastrointestinal disorders (nausea, vomiting, diarrhea), hematologic disorders (thrombocytopenia, anemia, neutropenia), general disorders (fatigue and asthenia) and dysgeusia"
same,dose limiting toxicities (DLTs),[2]; in vivo,No dose limiting toxicities (DLTs) were observed
same,most frequently reported adverse events,[2]; in vivo,"hematologic, gastrointestinal and dermatologic"
same,tumor growth inhibition (TGI) compared to vehicle,NCI-H1048 xenografts; 28 consecutive days,62%
same,tumor growth inhibition (TGI) compared to vehicle,NCI-H1048 xenografts; two cycles of 7 days on/7 days off (7+/7-),63%
same,target engagement as measured by plasma SDMA,plasma SDMA,Robust target engagement
same,plasma Cmax and AUC dose dependence,[3],linearly dose-proportional
same,time complete regression was maintained postdose,[4]; 10 mg/kg once daily oral,up to 14 days
same,tumor regression,[4]; 10 mg/kg once daily oral,complete regression of tumors
same,tumor growth inhibition (TGI),"[4]; 10 mg/kg once daily oral, Day 42 postimplantation, vs vehicle control",99.1%
same,start of tumor regrowth after cessation of dosing,"[4]; 10 mg/kg once daily, all 8 mice",approximately 14 days
same,antitumor activity (statistical significance) compared with vehicle control,"[4]; 1, 3, and 10 mg/kg once daily oral",statistically significant antitumor activity
same,antitumor activity (biological significance),[4]; 3 and 10 mg/kg once daily oral,biologically significant antitumor activity
same,additional stabilization of the PRMT5/MEP50 complex in comparison to SAM binding,PRMT5/MEP50 complex,12 degrees Celsius
same,binding kinetics,PRMT5/MEP50,slow off-rate binding kinetics
